pEC50: −log10 of the molar value.
Key:
Assay type in all cases: cell-based
S1P1 = target: T1, S1P1 (Homo sapiens, UniProt P21453); experiment: FLIPR calcium flux assay, CHO cells expressing S1P1; conditions: agonist activity; read-out: EC50 for S1P-1
T1 construct: expressed in transfected cells; host or cells: CHO cells (G418 selection)
Procedure: (§1) A.2 FLIPR Calcium Flux Assay
(§2) Compounds of the invention are tested for agonist activity on S1P1, S1P3, S1P5, and S1P6 with a FLIPR calcium flux assay. Briefly, CHO cells expressing an S1P receptor are maintained in F-12K medium (ATCC), containing 5% FBS, with 500 ug/ml of G418. Prior to the assay, the cells are plated in 384 black clear bottom plates at the density of 10,000 cells/well/25 µl in the medium of F-12K containing 1% FBS. The second day, the cells are washed three times (25 μl/each) with washing buffer. About 25 μl of dye are added to each well and incubated for 1 hour at 37° C. and 5% CO2. The cells are then washed four times with washing buffer (25 μl/each). The calcium flux is assayed after adding 25 μl of SEW2871 (published by Rosen et al., used as reference) solution to each well of cells. The same assay is performed with cells expressing each of the different S1P receptors. Titration in the FLIPR calcium flux assay is recorded over a 3-minute interval, and quantitated as maximal peak height percentage response relative to S1P-1 activation. The compounds of the invention are active in this assay at a concentration of from 10^−12 and […].

S1P-2 = target: T2, S1P-2 (Homo sapiens, UniProt O95136); experiment: FLIPR calcium flux assay, S1P-2; conditions: agonist activity
T2 construct: expressed in transfected cells; host or cells: CHO cells (G418 selection)
T2 sequence (O95136 whole entry): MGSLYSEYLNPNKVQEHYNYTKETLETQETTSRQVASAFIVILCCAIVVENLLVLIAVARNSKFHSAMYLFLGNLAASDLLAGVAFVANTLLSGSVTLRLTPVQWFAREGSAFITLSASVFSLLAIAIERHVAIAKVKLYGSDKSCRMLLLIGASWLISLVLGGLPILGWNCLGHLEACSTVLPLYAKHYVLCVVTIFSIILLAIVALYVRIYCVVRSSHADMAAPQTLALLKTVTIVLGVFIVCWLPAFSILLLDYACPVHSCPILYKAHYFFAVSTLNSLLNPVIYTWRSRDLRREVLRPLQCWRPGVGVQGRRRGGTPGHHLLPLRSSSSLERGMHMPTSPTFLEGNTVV
Procedure: as §1, §2

S1P3 = target: T3, S1P3 (Homo sapiens, UniProt Q99500); experiment: FLIPR calcium flux assay, CHO cells expressing S1P3; conditions: agonist activity; read-out: EC50 for S1P-3
T3 construct: expressed in transfected cells; host or cells: CHO cells (G418 selection)
T3 sequence (Q99500 whole entry): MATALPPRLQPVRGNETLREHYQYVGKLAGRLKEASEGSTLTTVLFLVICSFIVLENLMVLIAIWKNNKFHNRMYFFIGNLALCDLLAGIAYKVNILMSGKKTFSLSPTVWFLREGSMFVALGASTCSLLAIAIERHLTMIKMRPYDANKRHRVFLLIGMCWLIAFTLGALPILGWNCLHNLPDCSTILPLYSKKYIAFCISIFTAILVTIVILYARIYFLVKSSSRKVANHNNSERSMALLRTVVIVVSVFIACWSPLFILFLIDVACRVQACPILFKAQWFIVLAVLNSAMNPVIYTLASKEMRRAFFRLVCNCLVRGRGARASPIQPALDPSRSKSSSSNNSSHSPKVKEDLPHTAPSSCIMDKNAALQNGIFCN
Procedure: as §1, §2

S1P-4 = target: T4, S1P-4 (Homo sapiens, UniProt O95977); experiment: FLIPR calcium flux assay, S1P-4; conditions: agonist activity
T4 construct: expressed in transfected cells; host or cells: CHO cells (G418 selection)
T4 sequence (O95977 1-384): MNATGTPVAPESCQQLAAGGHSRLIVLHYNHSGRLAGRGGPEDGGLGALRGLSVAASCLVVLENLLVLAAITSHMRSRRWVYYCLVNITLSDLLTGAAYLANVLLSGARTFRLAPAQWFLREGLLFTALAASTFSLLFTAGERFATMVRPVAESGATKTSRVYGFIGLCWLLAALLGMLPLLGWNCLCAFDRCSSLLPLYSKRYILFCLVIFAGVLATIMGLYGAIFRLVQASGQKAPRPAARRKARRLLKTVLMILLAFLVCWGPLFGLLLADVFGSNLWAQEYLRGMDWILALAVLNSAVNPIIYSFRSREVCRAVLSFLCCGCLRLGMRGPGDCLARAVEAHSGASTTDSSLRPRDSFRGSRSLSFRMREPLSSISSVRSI

S1P5 = target: T5, S1P5 (Homo sapiens, UniProt Q9H228); experiment: FLIPR calcium flux assay, CHO cells expressing S1P5; conditions: agonist activity; read-out: EC50 for S1P-5
T5 construct: expressed in transfected cells; host or cells: CHO cells (G418 selection)
T5 sequence (Q9H228 whole entry): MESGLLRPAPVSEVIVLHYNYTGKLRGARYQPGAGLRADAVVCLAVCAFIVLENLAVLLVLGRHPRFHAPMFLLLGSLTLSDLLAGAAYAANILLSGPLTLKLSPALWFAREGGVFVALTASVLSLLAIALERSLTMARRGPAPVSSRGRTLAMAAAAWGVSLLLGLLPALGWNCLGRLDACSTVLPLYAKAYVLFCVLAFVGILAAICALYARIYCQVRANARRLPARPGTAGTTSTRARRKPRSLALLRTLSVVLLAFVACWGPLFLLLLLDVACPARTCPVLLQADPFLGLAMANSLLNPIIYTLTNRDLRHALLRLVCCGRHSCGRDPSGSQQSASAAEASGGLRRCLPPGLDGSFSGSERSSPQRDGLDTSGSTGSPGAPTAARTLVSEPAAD
Procedure: as §1, §2

T1 sequence (P21453 whole entry): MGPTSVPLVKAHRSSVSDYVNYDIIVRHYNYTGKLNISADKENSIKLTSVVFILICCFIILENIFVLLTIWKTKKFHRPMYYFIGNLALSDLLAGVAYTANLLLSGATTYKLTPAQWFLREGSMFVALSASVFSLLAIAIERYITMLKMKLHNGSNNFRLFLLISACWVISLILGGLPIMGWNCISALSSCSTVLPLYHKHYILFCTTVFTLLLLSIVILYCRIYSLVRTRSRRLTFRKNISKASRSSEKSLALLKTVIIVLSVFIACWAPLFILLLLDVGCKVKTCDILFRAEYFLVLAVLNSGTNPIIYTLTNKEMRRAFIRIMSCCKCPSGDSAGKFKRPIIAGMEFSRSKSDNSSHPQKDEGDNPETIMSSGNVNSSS

pEC50 (S1P1): 8.06
pEC50 (S1P-2): < 6.00
pEC50 (S1P3): < 6.00
pEC50 (S1P-4): < 6.00
pEC50 (S1P5): < 6.00
Compound: CCCc1c(OC)ccc2cc(C(=O)Nc3ccc(CN)cc3)c(=O)oc12 [Example 1, 7-Methoxy-2-oxo-8-propyl-2H-chromene-3-carboxylic acid (4-aminomethyl-phenyl)-amide]

Reference: patent US20090318546A1, “Chromen-2-One Derivatives” (NOVARTIS AG, priority 2006, published 2009)
